Tested on: plants
Experiment: auxin effect on plants (media based agriculture)
Assay type: in vivo
Settings: media based agriculture with and without soil; statement in words only
Text: The resulting monomer can be leached through the media column and recuperated in pure form after filtering out any bacteria using appropriate filtration such as diatomaceous earth or filter paper. This can also be carried out in media based agriculture both with and without soil.

3-4 deoxy-glucosamine [monomer]
auxin effect on plants: pronounced auxin effect

— patent US20200362380A1, “Novel Biomolecule and Methods of Manufacturing Thereof” (priority 2018, published 2020)
